Source: ChEMBL document CHEMBL4665642, “Anticancer profile of newly synthesized BRAF inhibitors possess 5-(pyrimidin-4-yl)imidazo[2,1-b]thiazole scaffold” (Bioorg Med Chem, 2019)

Key:
Type in all cases: functional
Conditions in all cases: read-out: Activity
MDA-MB-468 = assay: Cytotoxicity against human MDA-MB-468 cells assessed as cell viability at 10 uM incubated for 48 hrs by sulforhodamine B assay relative to control
BT-549 = assay: Cytotoxicity against human BT-549 cells assessed as cell viability at 10 uM incubated for 48 hrs by sulforhodamine B assay relative to control
MDA-MB-231 = assay: Cytotoxicity against human MDA-MB-231 cells assessed as cell viability at 10 uM incubated for 48 hrs by sulforhodamine B assay relative to control
MCF7 = assay: Cytotoxicity against human MCF7 cells assessed as cell viability at 10 uM incubated for 48 hrs by sulforhodamine B assay relative to control
DU-145 = assay: Cytotoxicity against human DU-145 cells assessed as cell viability at 10 uM incubated for 48 hrs by sulforhodamine B assay relative to control
PC-3 = assay: Cytotoxicity against human PC-3 cells assessed as cell viability at 10 uM incubated for 48 hrs by sulforhodamine B assay relative to control
TK-10 = assay: Cytotoxicity against human TK-10 cells assessed as cell viability at 10 uM incubated for 48 hrs by sulforhodamine B assay relative to control
SN12C = assay: Cytotoxicity against human SN12C cells assessed as cell viability at 10 uM incubated for 48 hrs by sulforhodamine B assay relative to control
CAKI-1 = assay: Cytotoxicity against human CAKI-1 cells assessed as cell viability at 10 uM incubated for 48 hrs by sulforhodamine B assay relative to control
ACHN = assay: Cytotoxicity against human ACHN cells assessed as cell viability at 10 uM incubated for 48 hrs by sulforhodamine B assay relative to control
786-0 = assay: Cytotoxicity against human 786-0 cells assessed as cell viability at 10 uM incubated for 48 hrs by sulforhodamine B assay relative to control
SK-OV-3 = assay: Cytotoxicity against human SK-OV-3 cells assessed as cell viability at 10 uM incubated for 48 hrs by sulforhodamine B assay relative to control
NCI/ADR-RES = assay: Cytotoxicity against human NCI/ADR-RES cells assessed as cell viability at 10 uM incubated for 48 hrs by sulforhodamine B assay relative to control
OVCAR-8 = assay: Cytotoxicity against human OVCAR-8 cells assessed as cell viability at 10 uM incubated for 48 hrs by sulforhodamine B assay relative to control
OVCAR-4 = assay: Cytotoxicity against human OVCAR-4 cells assessed as cell viability at 10 uM incubated for 48 hrs by sulforhodamine B assay relative to control
OVCAR-3 = assay: Cytotoxicity against human OVCAR-3 cells assessed as cell viability at 10 uM incubated for 48 hrs by sulforhodamine B assay relative to control
IGROV-1 = assay: Cytotoxicity against human IGROV-1 cells assessed as cell viability at 10 uM incubated for 48 hrs by sulforhodamine B assay relative to control
SK-MEL-28 = assay: Cytotoxicity against human SK-MEL-28 cells assessed as cell viability at 10 uM incubated for 48 hrs by sulforhodamine B assay relative to control
MDA-MB-435 = assay: Cytotoxicity against human MDA-MB-435 cells assessed as cell viability at 10 uM incubated for 48 hrs by sulforhodamine B assay relative to control
M14 = assay: Cytotoxicity against human M14 cells assessed as cell viability at 10 uM incubated for 48 hrs by sulforhodamine B assay relative to control
CCRF-CEM = assay: Cytotoxicity against human CCRF-CEM cells assessed as cell viability at 10 uM incubated for 48 hrs by sulforhodamine B assay relative to control
HL-60(TB) = assay: Cytotoxicity against human HL-60(TB) cells assessed as cell viability at 10 uM incubated for 48 hrs by sulforhodamine B assay relative to control
K562 = assay: Cytotoxicity against human K562 cells assessed as cell viability at 10 uM incubated for 48 hrs by sulforhodamine B assay relative to control
RPMI-8226 = assay: Cytotoxicity against human RPMI-8226 cells assessed as cell viability at 10 uM incubated for 48 hrs by sulforhodamine B assay relative to control
SR = assay: Cytotoxicity against human SR cells assessed as cell viability at 10 uM incubated for 48 hrs by sulforhodamine B assay relative to control
A549 = assay: Cytotoxicity against human A549 cells assessed as cell viability at 10 uM incubated for 48 hrs by sulforhodamine B assay relative to control
HOP-62 = assay: Cytotoxicity against human HOP-62 cells assessed as cell viability at 10 uM incubated for 48 hrs by sulforhodamine B assay relative to control
HOP-92 = assay: Cytotoxicity against human HOP-92 cells assessed as cell viability at 10 uM incubated for 48 hrs by sulforhodamine B assay relative to control
NCI-H226 = assay: Cytotoxicity against human NCI-H226 cells assessed as cell viability at 10 uM incubated for 48 hrs by sulforhodamine B assay relative to control
NCI-H23 = assay: Cytotoxicity against human NCI-H23 cells assessed as cell viability at 10 uM incubated for 48 hrs by sulforhodamine B assay relative to control
NCI-H322M = assay: Cytotoxicity against human NCI-H322M cells assessed as cell viability at 10 uM incubated for 48 hrs by sulforhodamine B assay relative to control
NCI-H460 = assay: Cytotoxicity against human NCI-H460 cells assessed as cell viability at 10 uM incubated for 48 hrs by sulforhodamine B assay relative to control
COLO 205 = assay: Cytotoxicity against human COLO 205 cells assessed as cell viability at 10 uM incubated for 48 hrs by sulforhodamine B assay relative to control
HCT-15 = assay: Cytotoxicity against human HCT-15 cells assessed as cell viability at 10 uM incubated for 48 hrs by sulforhodamine B assay relative to control
HCT-29 = assay: Cytotoxicity against human […] cells assessed as cell viability at 10 uM incubated for 48 hrs by sulforhodamine B assay relative to control
KM12 = assay: Cytotoxicity against human KM12 cells assessed as cell viability at 10 uM incubated for 48 hrs by sulforhodamine B assay relative to control
SF-268 = assay: Cytotoxicity against human SF-268 cells assessed as cell viability at 10 uM incubated for 48 hrs by sulforhodamine B assay relative to control
SF-295 = assay: Cytotoxicity against human SF-295 cells assessed as cell viability at 10 uM incubated for 48 hrs by sulforhodamine B assay relative to control
SNB-19 = assay: Cytotoxicity against human SNB-19 cells assessed as cell viability at 10 uM incubated for 48 hrs by sulforhodamine B assay relative to control
SNB-75 = assay: Cytotoxicity against human SNB-75 cells assessed as cell viability at 10 uM incubated for 48 hrs by sulforhodamine B assay relative to control
LOX IMVI = assay: Cytotoxicity against human LOX IMVI cells assessed as cell viability at 10 uM incubated for 48 hrs by sulforhodamine B assay relative to control

O=S(=O)(NCCNc1nccc(-c2c(-c3cccc(F)c3)nc3sccn23)n1)c1ccc(F)cc1
viability at 10 µM (MDA-MB-468): 63.1%
viability at 10 µM (BT-549): 78.6%
viability at 10 µM (MDA-MB-231): 76.6%
viability at 10 µM (MCF7): 22%
viability at 10 µM (DU-145): 52.4%
viability at 10 µM (PC-3): 51.4%
viability at 10 µM (TK-10): 80.4%
viability at 10 µM (SN12C): 49.2%
viability at 10 µM (CAKI-1): 41.3%
viability at 10 µM (ACHN): 35.8%
viability at 10 µM (786-0): 58.7%
viability at 10 µM (SK-OV-3): 79.9%
viability at 10 µM (NCI/ADR-RES): 66.7%
viability at 10 µM (OVCAR-8): 47.3%
viability at 10 µM (OVCAR-4): 59.3%
viability at 10 µM (OVCAR-3): 67.2%
viability at 10 µM (IGROV-1): 11.3%
viability at 10 µM (SK-MEL-28): 81.1%
viability at 10 µM (MDA-MB-435): 31.5%
viability at 10 µM (M14): 67.8%
viability at 10 µM (CCRF-CEM): 54.7%
viability at 10 µM (HL-60(TB)): 95.1%
viability at 10 µM (K562): 38.8%
viability at 10 µM (RPMI-8226): 63.4%
viability at 10 µM (SR): 38%
viability at 10 µM (A549): 32.1%
viability at 10 µM (HOP-62): 80.1%
viability at 10 µM (HOP-92): 84.8%
viability at 10 µM (NCI-H226): 45.6%
viability at 10 µM (NCI-H23): 79.3%
viability at 10 µM (NCI-H322M): 64%
viability at 10 µM (NCI-H460): 35%
viability at 10 µM (COLO 205): 39.5%
viability at 10 µM (HCT-15): 32.2%
viability at 10 µM (HCT-29): 28.7%
viability at 10 µM (KM12): 40.1%
viability at 10 µM (SF-268): 53.8%
viability at 10 µM (SF-295): 67.5%
viability at 10 µM (SNB-19): 67.4%
viability at 10 µM (SNB-75): 67.7%
viability at 10 µM (LOX IMVI): 42.8%
